What was measured:
Homo sapiens [1] = assay: Toxicity in orally dosed HSV-infected patient assessed as incidence of vomiting administered as bid; assay type: organism-based; conditions: in vivo, po
Homo sapiens [2] = assay: Toxicity in HSV-infected 6 to <=12 years aged pediatric patient assessed as incidence of nausea at 23.5 mg/kg, po bid; assay type: organism-based; set-up: dose 23.5 mg/kg, route oral; conditions: in vivo
Homo sapiens [3] = assay: Toxicity in HSV-infected 1 to <2 years aged pediatric patient assessed as pyrexia at 30.9 mg/kg, po administered as bid; assay type: organism-based; set-up: dose 30.9 mg/kg, route oral; conditions: in vivo
Homo sapiens [4] = assay: Toxicity in VZV-infected 2 to <6 years aged pediatric patient assessed as incidence of pruritus at 40.6 mg/kg, po tid; assay type: organism-based; set-up: dose 40.6 mg/kg, route oral; conditions: in vivo
Homo sapiens [5] = assay: Toxicity in HSV-infected 2 to <6 years aged pediatric patient assessed as incidence of abdominal pain at 27.6 mg/kg, po bid; assay type: organism-based, Abdomen; set-up: dose 27.6 mg/kg, route oral; conditions: in vivo
Homo sapiens [6] = assay: Toxicity in HSV-infected 2 to <6 years aged pediatric patient assessed as incidence of vomiting at 27.6 mg/kg, po bid; assay type: organism-based; set-up: dose 27.6 mg/kg, route oral; conditions: in vivo
Homo sapiens [7] = assay: Toxicity in HSV-infected 2 to <6 years aged pediatric patient assessed as at least one adverse event at 27.6 mg/kg, po bid; assay type: organism-based; set-up: dose 27.6 mg/kg, route oral; conditions: in vivo
Homo sapiens [8] = assay: Toxicity in HSV-infected 2 to <6 years aged pediatric patient assessed as incidence of diarrhea at 27.6 mg/kg, po bid; assay type: organism-based; set-up: dose 27.6 mg/kg, route oral; conditions: in vivo
Homo sapiens [9] = assay: Toxicity in HSV-infected 2 to <6 years aged pediatric patient assessed as incidence of cough at 27.6 mg/kg, po bid; assay type: organism-based; set-up: dose 27.6 mg/kg, route oral; conditions: in vivo
[10] = Apparent oral clearance in 1 to <2 years aged pediatric patient administered as single dose; assay type: ADME, organism-based; conditions: human, in vivo
Homo sapiens [11] = assay: Toxicity in orally dosed HSV-infected patient assessed as incidence of cough administered as bid; assay type: organism-based; conditions: in vivo, po
Homo sapiens [12] = assay: Toxicity in HSV-infected 6 to <=12 years aged pediatric patient assessed as incidence of cough at 23.5 mg/kg, po bid; assay type: organism-based; set-up: dose 23.5 mg/kg, route oral; conditions: in vivo
Homo sapiens [13] = assay: Toxicity in VZV-infected 2 to <6 years aged pediatric patient assessed as pyrexia at 40.6 mg/kg, po tid; assay type: organism-based; set-up: dose 40.6 mg/kg, route oral; conditions: in vivo
Homo sapiens [14] = assay: Toxicity in VZV-infected 6 to <=12 years aged pediatric patient assessed as incidence of vomiting at 35.5 mg/kg, po tid; assay type: organism-based; set-up: dose 35.5 mg/kg, route oral; conditions: in vivo
Homo sapiens [15] = assay: Toxicity in HSV-infected 6 to <=12 years aged pediatric patient assessed as incidence of vomiting at 23.5 mg/kg, po bid; assay type: organism-based; set-up: dose 23.5 mg/kg, route oral; conditions: in vivo
Homo sapiens [16] = assay: AUC (0 to last) in 2 to <6 years aged pediatric patient administered as single dose; assay type: ADME, organism-based, Plasma; set-up: time 0 - last; conditions: in vivo
[17] = Cmax in 2 to <6 years aged pediatric patient administered as single dose; assay type: ADME, organism-based; conditions: human, in vivo
[18] = Cmax in 1 to <2 years aged pediatric patient administered as single dose; assay type: ADME, organism-based; conditions: human, in vivo
Homo sapiens [19] = assay: Toxicity in VZV-infected 6 to <=12 years aged pediatric patient assessed as incidence of abdominal pain at 35.5 mg/kg, po tid; assay type: organism-based, Abdomen; set-up: dose 35.5 mg/kg, route oral; conditions: in vivo
Homo sapiens [20] = assay: Toxicity in HSV-infected 1 to <2 years aged pediatric patient assessed as incidence of abdominal pain at 30.9 mg/kg, po bid; assay type: organism-based, Abdomen; set-up: dose 30.9 mg/kg, route oral; conditions: in vivo
Homo sapiens [21] = assay: Toxicity in HSV-infected 2 to <6 years aged pediatric patient assessed as pyrexia at 27.6 mg/kg, po bid; assay type: organism-based; set-up: dose 27.6 mg/kg, route oral; conditions: in vivo
Homo sapiens [22] = assay: Toxicity in orally dosed VZV-infected patient assessed as incidence of pruritus administered as tid; assay type: organism-based; conditions: in vivo, po
Homo sapiens [23] = assay: Toxicity in VZV-infected 6 to <=12 years aged pediatric patient assessed as incidence of diarrhea at 35.5 mg/kg, po tid; assay type: organism-based; set-up: dose 35.5 mg/kg, route oral; conditions: in vivo
Homo sapiens [24] = assay: Toxicity in VZV-infected 1 to <2 years aged pediatric patient assessed as incidence of headache at 40.8 mg/kg, po tid; assay type: organism-based; set-up: dose 40.8 mg/kg, route oral; conditions: in vivo
Homo sapiens [25] = assay: Toxicity in VZV-infected 1 to <2 years aged pediatric patient assessed as incidence of nausea at 40.8 mg/kg, po tid; assay type: organism-based; set-up: dose 40.8 mg/kg, route oral; conditions: in vivo
Homo sapiens [26] = assay: Toxicity in VZV-infected 6 to <=12 years aged pediatric patient assessed as pyrexia at 35.5 mg/kg, po tid; assay type: organism-based; set-up: dose 35.5 mg/kg, route oral; conditions: in vivo
Homo sapiens [27] = assay: Toxicity in orally dosed HSV-infected patient assessed as incidence of abdominal pain administered as bid; assay type: organism-based, Abdomen; conditions: in vivo, po
Homo sapiens [28] = assay: AUC (0 to infinity) in 6 to <=12 years aged pediatric patient administered as single dose; assay type: ADME, organism-based, Plasma; set-up: time infinity; conditions: in vivo
Homo sapiens [29] = assay: Toxicity in orally dosed VZV-infected patient assessed as at least one adverse event administered as tid; assay type: organism-based; conditions: in vivo, po
Homo sapiens [30] = assay: Toxicity in HSV-infected 2 to <6 years aged pediatric patient assessed as incidence of headache at 27.6 mg/kg, po bid; assay type: organism-based; set-up: dose 27.6 mg/kg, route oral; conditions: in vivo
Homo sapiens [31] = assay: AUC (0 to last) in 6 to <=12 years aged pediatric patient administered as single dose; assay type: ADME, organism-based, Plasma; set-up: time 0 - last; conditions: in vivo
Homo sapiens [32] = assay: Toxicity in HSV-infected 6 to <=12 years aged pediatric patient assessed as at least one adverse event at 23.5 mg/kg, po bid; assay type: organism-based; set-up: dose 23.5 mg/kg, route oral; conditions: in vivo
Homo sapiens [33] = assay: Toxicity in HSV-infected 1 to <2 years aged pediatric patient assessed as at least one adverse event at 30.9 mg/kg, po bid; assay type: organism-based; set-up: dose 30.9 mg/kg, route oral; conditions: in vivo
Homo sapiens [34] = assay: Toxicity in VZV-infected 1 to <2 years aged pediatric patient assessed as at least one adverse event at 40.8 mg/kg, po tid; assay type: organism-based; set-up: dose 40.8 mg/kg, route oral; conditions: in vivo
Homo sapiens [35] = assay: Toxicity in HSV-infected 1 to <2 years aged pediatric patient assessed as incidence of cough at 30.9 mg/kg, po bid; assay type: organism-based; set-up: dose 30.9 mg/kg, route oral; conditions: in vivo
Homo sapiens [36] = assay: Toxicity in VZV-infected 1 to <2 years aged pediatric patient assessed as incidence of diarrhea at 40.8 mg/kg, po tid; assay type: organism-based; set-up: dose 40.8 mg/kg, route oral; conditions: in vivo
Homo sapiens [37] = assay: Toxicity in VZV-infected 2 to <6 years aged pediatric patient assessed as incidence of headache at 40.6 mg/kg, po tid; assay type: organism-based; set-up: dose 40.6 mg/kg, route oral; conditions: in vivo
Homo sapiens [38] = assay: Toxicity in orally dosed VZV-infected patient assessed as incidence of abdominal pain administered as tid; assay type: organism-based, Abdomen; conditions: in vivo, po
[39] = Half life in 6 to <=12 years aged pediatric patient administered as single dose; assay type: ADME, organism-based; conditions: human, in vivo
Homo sapiens [40] = assay: Toxicity in HSV-infected 1 to <2 years aged pediatric patient assessed as incidence of headache at 30.9 mg/kg, po bid; assay type: organism-based; set-up: dose 30.9 mg/kg, route oral; conditions: in vivo
Homo sapiens [41] = assay: Toxicity in VZV-infected 1 to <2 years aged pediatric patient assessed as incidence of pruritus at 40.8 mg/kg, po tid; assay type: organism-based; set-up: dose 40.8 mg/kg, route oral; conditions: in vivo
Homo sapiens [42] = assay: Toxicity in HSV-infected 1 to <2 years aged pediatric patient assessed as incidence of vomiting at 30.9 mg/kg, po bid; assay type: organism-based; set-up: dose 30.9 mg/kg, route oral; conditions: in vivo
Homo sapiens [43] = assay: Toxicity in HSV-infected 2 to <6 years aged pediatric patient assessed as incidence of nausea at 27.6 mg/kg, po bid; assay type: organism-based; set-up: dose 27.6 mg/kg, route oral; conditions: in vivo

SMILES: Nc1nc2c(ncn2CCC(CO)CO)c(=O)[nH]1 [PENCICLOVIR]
- Activity (Homo sapiens [1]): 10.6%
- Activity (Homo sapiens [2]): 11.1%
- Activity (Homo sapiens [3]): 15.4%
- Activity (Homo sapiens [4]): 0%
- Activity (Homo sapiens [5]): 6.3%
- Activity (Homo sapiens [6]): 6.3%
- Activity (Homo sapiens [7]): 50%
- Activity (Homo sapiens [8]): 6.3%
- Activity (Homo sapiens [9]): 6.3%
- CL/F [10]: 278 mL/min
- Activity (Homo sapiens [11]): 6.4%
- Activity (Homo sapiens [12]): 5.6%
- Activity (Homo sapiens [13]): 5.3%
- Activity (Homo sapiens [14]): 0%
- Activity (Homo sapiens [15]): 11.1%
- AUC (Homo sapiens [16]): 6.31 ug/hr.ml
- Cmax [17]: 2780 ng/mL
- Cmax [18]: 3060 ng/mL
- Activity (Homo sapiens [19]): 12.5%
- Activity (Homo sapiens [20]): 0%
- Activity (Homo sapiens [21]): 0%
- Activity (Homo sapiens [22]): 3.8%
- Activity (Homo sapiens [23]): 18.8%
- Activity (Homo sapiens [24]): 0%
- Activity (Homo sapiens [25]): 0%
- Activity (Homo sapiens [26]): 6.3%
- Activity (Homo sapiens [27]): 4.3%
- AUC (Homo sapiens [28]): 9.33 ug/hr.ml
- Activity (Homo sapiens [29]): 45.3%
- Activity (Homo sapiens [30]): 0%
- AUC (Homo sapiens [31]): 7.98 ug/hr.ml
- Activity (Homo sapiens [32]): 66.7%
- Activity (Homo sapiens [33]): 42.2%
- Activity (Homo sapiens [34]): 38.9%
- Activity (Homo sapiens [35]): 7.7%
- Activity (Homo sapiens [36]): 11.1%
- Activity (Homo sapiens [37]): 0%
- Activity (Homo sapiens [38]): 3.8%
- half-life [39]: 1.62 h
- Activity (Homo sapiens [40]): 0%
- Activity (Homo sapiens [41]): 5.6%
- Activity (Homo sapiens [42]): 15.4%
- Activity (Homo sapiens [43]): 0%

— ChEMBL document CHEMBL1649203, “Pharmacokinetics and safety of famciclovir in children with herpes simplex or varicella-zoster virus infection” (Antimicrob Agents Chemother, 2009)
